{"source": "patent US8871793B2", "about": "“Metaxalone cocrystals” (Nuformix Limited, priority 2009, dated 2014)", "key": {"[1]": {"experiment": "Pharmacokinetic study, oral capsule administration under fasted conditions in beagle dogs", "format": "in vivo", "settings": "mean, male beagle dogs, equivalent metaxalone dosage of 21 mg/kg; for Tmax / AUC: plasma; for Cmax: plasma metaxalone by LC-MS/MS; for AUC: linear trapezoidal rule", "protocol": "The study was designed to compare the pharmacokinetic profiles of the 1:0.5 metaxalone fumaric acid (prepared as described in Example 2.7) and 1:0.5 metaxalone succinic acid cocrystals (prepared as described in Example 4.7) with that of the crystalline metaxalone following oral administration under fasted conditions at 21 mg/kg dose level in beagle dogs. A crossover study was carried out using 5 male beagle dogs with a washout period of 5 days between each treatment. Prior to dosing, the dogs were fasted overnight, weighed and then this weight was used to load capsules with each test compound at an equivalent metaxalone dosage of 21 mg/kg. The capsules were orally administered to the dogs followed by about 10 mL of water. Food was provided 4 hours post-dose to all animals.\nBlood samples were collected at pre-dose, 10, 20 and 30 minutes, and 1, 2, 3, 4, 6, 8, 12 and 24 hour post-dose (12 time points) following oral dose administration. Approximately 0.8 ml of whole blood was withdrawn from the cephalic vein and placed in labelled tubes containing K2 EDTA as anticoagulant ([…] of 200 mM K2 EDTA solution per mL of blood). Plasma was separated by centrifuging the whole blood at about 2500 g for 10 minutes at 4° C. Separated plasma was stored below −70° C. until analysis.\nA fit for purpose LC-MS/MS method was used for the determination of the metaxalone concentrations in the plasma samples. Pharmacokinetic parameters from individual samples were calculated using the non-compartmental analysis tool of the WinNonlin® software (version 5.2). The area under the plasma concentration curve (AUC) was calculated using the linear trapezoidal rule. Peak plasma concentration (Cmax) and the time taken to reach the peak plasma concentration (Tmax) were the observed values."}, "[2]": {"settings": "cited from earlier work"}, "[3]": {"settings": "presence of food at the time of drug administration compared to fasted conditions; cited from earlier work"}}, "note": "Read-outs that look alike come from different tables or passages of the source.", "data": [{"smiles": "Cc1cc(C)cc(OCC2CNC(=O)O2)c1.Cc1cc(C)cc(OCC2CNC(=O)O2)c1.O=C(O)C=CC(=O)O", "note": "(stereo not shown) [1:0.5 Metaxalone Fumaric Acid Cocrystal]", "values": [{"measurement": "Tmax", "setting": "[1]", "result": 1.1, "unit": "h"}, {"measurement": "Cmax", "setting": "[1]", "result": 3635.39, "unit": "ng/mL"}, {"measurement": "AUC", "setting": "[1]", "result": 5202.44, "unit": "ng·h/mL"}]}, {"smiles": "Cc1cc(C)cc(OCC2CNC(=O)O2)c1.Cc1cc(C)cc(OCC2CNC(=O)O2)c1.O=C(O)CCC(=O)O", "note": "(stereo not shown) [1:0.5 Metaxalone Succinic Acid Cocrystal]", "values": [{"measurement": "Tmax", "setting": "[1]", "result": 1.8, "unit": "h"}, {"measurement": "Cmax", "setting": "[1]", "result": 2629.8, "unit": "ng/mL"}, {"measurement": "AUC", "setting": "[1]", "result": 4134.85, "unit": "ng·h/mL"}]}, {"smiles": "Cc1cc(C)cc(OCC2CNC(=O)O2)c1", "note": "(stereo not shown) [Metaxalone, 5-[(3,5-dimethylphenoxy)methyl]-2-oxazolidinone]", "values": [{"measurement": "Solubility in 96% ethanol", "setting": "[2]; 96% ethanol", "result": "soluble"}, {"measurement": "Solubility in chloroform", "setting": "[2]; chloroform", "result": "freely soluble"}, {"measurement": "Solubility in methanol", "setting": "[2]; methanol", "result": "soluble"}, {"measurement": "Solubility in water", "setting": "[2]; water", "result": "practically insoluble"}, {"measurement": "Increase of AUC(inf) by food", "setting": "[3]", "result": 115.4, "unit": "%"}, {"measurement": "Increase of AUC(last) by food", "setting": "[3]", "result": 123.5, "unit": "%"}, {"measurement": "Increase of C(max) by food", "setting": "[3]", "result": 177.5, "unit": "%"}, {"measurement": "Cmax", "setting": "[1]; dog, read-out: Cmax", "result": 1910, "unit": "ng/mL"}, {"measurement": "AUC", "setting": "[1]; dog, read-out: AUC", "result": 2380, "unit": "ng·h/mL"}, {"measurement": "Tmax", "setting": "[1]; dog, read-out: Tmax", "result": 0.9, "unit": "h"}]}]}
